This assay deals with EMT6 mouse tumor cells. Description: EMT6 s.c. tumor model (monotherapy and combination with cyclophosphamide). The format is in vivo, mice. Particulars: i.p. 3 times each week, mAb 40 mg/kg, CTX 80 mg/kg.

The structures appear in SMILES notation.

Excerpt: Athymic nude mice (Charles River Laboratories, Wilmington, Mass.), Balb/c mice, or C57B6 mice (Charles River Laboratories, Wilmington, Mass.) may be used for inoculation with mouse or human carcinoma cells. For treatment of established tumors in subcutaneous models, tumors may be allowed to grow to approximately 200 mm^3 in size, and then mice may be randomized into groups of 12-15 animals per group. In lung metastasis models, mice may be injected intravenously with tumor cells via tail vein. Animals may receive i.p. administered anti-TGFβRII mAb at a dose of 10-40 mg/kg three times each week. Mice in control groups may receive an equal volume of saline or normal IgG solution. […] Tumors may be measured twice each week with calipers. Tumor volumes may be calculated using the formula [π/6 (w1×w2×2)], where “w1” represents the largest tumor diameter and “w2” represents the smallest tumor diameter. […]
The inhibitory activity of mAb MT1 against immunosuppressive cells, i.e. CD4/CD25/Foxp3/TGFβRII+Treg cells and Gr-1+/CD11b+/TGFβRII+ myeloid cells is evaluated in an EMT6 s.c. tumor model. The inhibitory effect of anti-TGFβRII antibody on Treg and Gr-1+/CD11b+ myeloid cell population in tumor-bearing mice may be determined by FACS analysis on the alteration of Gr-1+/CD11b+ population and CD4/CD25/Foxp3/TGFβRII+ and Gr-1+/CD11b+/TGFβRII+ population after treatment of mice with mAb MT1. […]

With `O=P1(N(CCCl)CCCl)NCCCO1` (centres unmarked) [CTX, Cyclophosphamide], the “inhibition of primary tumor growth” value amounted to 62% and the “inhibition of spontaneous pulmonary metastasis” value was 96%.

(Values after patent publication US20100119516A1, “ANTI-TGF-BETA RECEPTOR II ANTIBODIES” (priority 2008, published 2010).)
